Measurements: ChEMBL document CHEMBL1201862, “PubChem BioAssay data set” (2004)
“And” between values parts separate entries of the source, which are not always exact repeats. Equal values may be shown once.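 All cell lines were grown in 96-well plates and treated with compound for 48 hours. At the GI50, growth is halved.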 The source made the active and inactive calls. No stated cut-off is given here; in the data, active = GI50 up to about 1.1 µM and inactive = higher.

Experiments:
Assay in all cases: NCI tumour cell line growth inhibition, 48 h
OVCAR-3 = system: OVCAR-3
HOP-92 = system: HOP-92
M14 = system: M14
T47D = system: T47D
NCI-H522 = system: NCI-H522
SK-MEL-28 = system: SK-MEL-28
RXF 393 = system: RXF 393
COLO 205 = system: COLO 205
MDA-N = system: MDA-N
SW-620 = system: SW-620
786-0 = system: 786-0
NCI-H23 = system: NCI-H23
OVCAR-8 = system: OVCAR-8
NCI-H460 = system: NCI-H460
IGROV-1 = system: IGROV-1
KM12 = system: KM12
ACHN = system: ACHN
HCT-116 = system: HCT-116
UO-31 = system: UO-31
Hs-578T = system: Hs-578T

Row | Compound | GI50 (OVCAR-3) | GI50 (HOP-92) | GI50 (M14) | GI50 (T47D) | GI50 (NCI-H522) | GI50 (SK-MEL-28) | GI50 (RXF 393) | GI50 (COLO 205) | GI50 (MDA-N) | GI50 (SW-620) | GI50 (786-0) | GI50 (NCI-H23) | GI50 (OVCAR-8) | GI50 (NCI-H460) | GI50 (IGROV-1) | GI50 (KM12) | GI50 (ACHN) | GI50 (HCT-116) | GI50 (UO-31) | GI50 (Hs-578T)
1 | C=CC(=O)N1C/C(=C\c2ccccc2)C(=O)/C(=C/c2ccccc2)C1 | 1.48 µM (inactive) | 3.62 µM (inactive) | 1.71 µM (inactive) | 3.75 µM (inactive) | 1.24 µM (inactive) | 1.82 µM (inactive) | 2.15 µM (inactive) | 1.83 µM (inactive) | 0.318 µM (active) | 0.259 µM (active) | 1.06 µM (active) | 2.14 µM (inactive) | 1.3 µM (inactive) | 1.89 µM (inactive) | 1.97 µM (inactive) | 0.989 µM (active) | 1.83 µM (inactive) | 0.195 µM (active) | 1.77 µM (inactive) | 
2 | CCCCCCCCCCCCCC(=O)NO | 10.1 µM (inactive) | 15.8 µM (inactive) | 15.8 µM (inactive) |  | 1.01 µM (active) | 31.6 µM (inactive) | 5.75 µM (inactive) | 10.5 µM (inactive) | 25.7 µM (inactive) | 16.3 µM (inactive) | 7.1 µM (inactive) | 8.22 µM (inactive) | 12.1 µM (inactive) | 11.8 µM (inactive) | 17.4 µM (inactive) | 9.42 µM (inactive) | 14.9 µM (inactive) | 8.85 µM (inactive) | 6.38 µM (inactive) | 
3 | CC(=O)OCCN1c2ccccc2Sc2cnccc21 | > 10 µM (inactive) | > 10 µM (inactive) | > 10 µM (inactive) | > 10 µM (inactive) | > 10 µM (inactive) | > 10 µM (inactive) | > 10 µM (inactive) | > 10 µM (inactive) | > 10 µM (inactive) | > 10 µM (inactive) | > 10 µM (inactive) | > 10 µM (inactive) | > 10 µM (inactive) | > 10 µM (inactive) | > 10 µM (inactive) | 0.067 µM (active) | > 10 µM (inactive) | > 10 µM (inactive) | > 10 µM (inactive) | 
4 | N#CC(C#N)=Cc1ccc2c(c1)OC(Cl)O2 (centres undefined) | 22.1 µM (inactive) |  | 21.4 µM (inactive) | 32.4 µM (inactive) | > 10 µM (inactive) | 19.9 µM (inactive) | 28.5 µM (inactive) | 24.3 µM (inactive) | 16 µM (inactive) | > 10 µM (inactive) | 20.3 µM (inactive) | 31.1 µM (inactive) | 31.6 µM (inactive) |  |  | 20.4 µM (inactive) | 19.9 µM (inactive) | 18.9 µM (inactive) | 16.9 µM (inactive) | 
5 | COC(=O)CCC1(O)C=CC(=O)C=C1 | 24.4 µM (inactive) | 65.6 µM (inactive) | 40.8 µM (inactive) |  | 14.1 µM (inactive) | 23.2 µM (inactive) | 23.6 µM (inactive) | 17.6 µM (inactive) | 63.4 µM (inactive) | 29.8 µM (inactive) | 36.4 µM (inactive) | 33.7 µM (inactive) | 31.7 µM (inactive) | 28.2 µM (inactive) | 20.6 µM (inactive) | > 100 µM (inactive) | 51.6 µM (inactive) | 34 µM (inactive) | 55 µM (inactive) | 29.4 µM (inactive)
6 | CCC(=O)C(C(C)/C=C/CCSc1ccccc1)C(O)CCCCCC(=O)OC (centres undefined) | > 100 µM (inactive) | 13.7 µM (inactive) | > 100 µM (inactive) |  | 89.3 µM (inactive) | > 100 µM (inactive) | > 100 µM (inactive) | > 100 µM (inactive) | > 100 µM (inactive) | > 100 µM (inactive) | > 100 µM (inactive) | 77.3 µM (inactive) | > 100 µM (inactive) | > 100 µM (inactive) | > 100 µM (inactive) | 40.6 µM (inactive) | > 100 µM (inactive) | > 100 µM (inactive) | > 100 µM (inactive) | 
7 | Cc1ccc(C(=O)N/N=C(\N=N\c2ccccc2)c2ccc(N(C)C)cc2)cc1 | > 100 µM (inactive) | > 100 µM (inactive) | > 100 µM (inactive) |  | 65.8 µM (inactive) | > 100 µM (inactive) |  | 57.3 µM (inactive) | 29.4 µM (inactive) | > 100 µM (inactive) | 68.2 µM (inactive) | > 100 µM (inactive) | > 100 µM (inactive) | > 100 µM (inactive) | > 100 µM (inactive) | 71.1 µM (inactive) |  | > 100 µM (inactive) | > 100 µM (inactive) | 
8 | O=c1c2cc(S(=O)(=O)Nc3ccccc3Cl)ccc2ncn1NS(=O)(=O)c1ccc(Br)cc1 | > 37.5 µM (inactive) | > 37.5 µM (inactive) | > 37.5 µM (inactive) |  | > 37.5 µM (inactive) | > 37.5 µM (inactive) |  | > 37.5 µM (inactive) | > 37.5 µM (inactive) | > 37.5 µM (inactive) | > 37.5 µM (inactive) | > 37.5 µM (inactive) | > 37.5 µM (inactive) | > 37.5 µM (inactive) | > 37.5 µM (inactive) | > 37.5 µM (inactive) | > 37.5 µM (inactive) | > 37.5 µM (inactive) | > 37.5 µM (inactive) | > 37.5 µM (inactive)
9 | Cc1ccc(S(=O)(=O)ON=C2CC(c3ccccc3)N(C)C(c3ccccc3)C2)cc1 (centres undefined) | 19.5 µM (inactive) and 20 µM (inactive) | 15.9 µM (inactive) and 15.3 µM (inactive) | 19.4 µM (inactive) and 17.2 µM (inactive) |  | 14.2 µM (inactive) and 12.1 µM (inactive) | 23.8 µM (inactive) and 22.9 µM (inactive) | 20.2 µM (inactive) and 18.8 µM (inactive) | 15.6 µM (inactive) and 14.8 µM (inactive) |  | 17.9 µM (inactive) and 15.5 µM (inactive) | 21.2 µM (inactive) and 22.9 µM (inactive) | 25.2 µM (inactive) and 19.9 µM (inactive) | 17.6 µM (inactive) and 16.9 µM (inactive) | 19.2 µM (inactive) and 20.7 µM (inactive) | 23.5 µM (inactive) and 21.4 µM (inactive) | 16.4 µM (inactive) | 19.8 µM (inactive) | 15.9 µM (inactive) and 14.2 µM (inactive) | 15.6 µM (inactive) and 16.9 µM (inactive) | 
10 | N=C(N)C1CN(CC=O)C(=O)NC1=O (centres undefined) | > 100 µM (inactive) | > 100 µM (inactive) | > 100 µM (inactive) | > 100 µM (inactive) |  | > 100 µM (inactive) |  | > 100 µM (inactive) | > 100 µM (inactive) | > 100 µM (inactive) | > 100 µM (inactive) | > 100 µM (inactive) | > 100 µM (inactive) | > 100 µM (inactive) | > 100 µM (inactive) |  | > 100 µM (inactive) | > 100 µM (inactive) | > 100 µM (inactive) | 
11 | Cn1c(O)c(C(=O)Nc2ccc([N+](=O)[O-])cc2)c(=O)n(C)c1=S | 2.37 µM (inactive) | 1.54 µM (inactive) | 3.37 µM (inactive) |  | 2.32 µM (inactive) | 1.88 µM (inactive) | 1.12 µM (active) | 3.31 µM (inactive) |  | 3.49 µM (inactive) | 2.67 µM (inactive) | 1.42 µM (inactive) | 2.14 µM (inactive) | 2.82 µM (inactive) | 2.55 µM (inactive) | 2.49 µM (inactive) | 2.48 µM (inactive) | 2.26 µM (inactive) | 1.54 µM (inactive) | 0.617 µM (active)
